# Columns and labels:
# Type in all cases: functional, cell-based
# [1] = system: P388; experiment: The compound was evaluated for its cytotoxic potency against P388 cell line; details: Mus musculus
# [2] = system: HT-29; experiment: The compound was evaluated for its cytotoxic potency against HT-29 cell line; details: Homo sapiens
# [3] = system: A549; experiment: The compound was evaluated for its cytotoxic potency against A-549 cell line; details: Homo sapiens
# [4] = system: SK-MEL-28; experiment: The compound was evaluated for its cytotoxic potency against MEL-28 cell line; details: Homo sapiens
SMILES,IC50 [1],IC50 [2],IC50 [3],IC50 [4]
COc1ccc(/C=C/c2ccc3ccccc3c2)cc1O,3980 nM,3980 nM,3980 nM,3980 nM
COc1cc(/C=C/c2ccc3ccccc3c2)cc(OC)c1OC,398 nM,398 nM,398 nM,398 nM
COc1cc(CCc2ccc3ccccc3c2)cc(OC)c1OC,316 nM,316 nM,316 nM,316 nM
C(=C/c1ccc2ccccc2c1)/c1ccc2ccccc2c1,3980 nM,3980 nM,3980 nM,3980 nM
COc1ccc2[nH]c(-c3ccc4ccccc4c3)c(-c3cc(OC)c(OC)c(OC)c3)c2c1,1260 nM,1260 nM,1260 nM,1260 nM
COc1ccc(CCc2ccc3ccccc3c2)cc1O,5010 nM,10000 nM,5010 nM,5010 nM
COc1ccc(/C=C\c2ccc3ccccc3c2)cc1O,39.8 nM,39.8 nM,39.8 nM,39.8 nM
COc1ccc(/C=C\c2cc(OC)c(OC)c(OC)c2)cc1O [COMBRETASTATIN A4],3.16 nM,31.6 nM,3.16 nM,3.16 nM
COc1cc(/C=C\c2ccc3ccccc3c2)cc(OC)c1OC [NAPHTHYLCOMBRETASTATIN],15.8 nM,15.8 nM,15.8 nM,15.8 nM

# Reference: ChEMBL document CHEMBL1132813, “Design, synthesis and cytotoxic activities of naphthyl analogues of combretastatin A-4” (Bioorg Med Chem Lett, 2000)
